Assay results reported in paper PMC8795738, “The Tarantula Venom Peptide Eo1a Binds to the Domain II S3-S4 Extracellular Loop of Voltage-Gated Sodium Channel NaV1.8 to Enhance Activation” (Frontiers in Pharmacology, 2022).
Where a SMILES comes first, the peptide text is derived from it. Bridges are numbered along the chain shown (N, C = ends).

Biological target: T1, KV2.1 (Homo sapiens, UniProt Q14721)
T1 construct: expressed in transfected cells; host or cells: HEK293 cells stably expressing β1/β2, transient transfection with Lipofectamine 2000
T1 sequence (Q14721 1-858): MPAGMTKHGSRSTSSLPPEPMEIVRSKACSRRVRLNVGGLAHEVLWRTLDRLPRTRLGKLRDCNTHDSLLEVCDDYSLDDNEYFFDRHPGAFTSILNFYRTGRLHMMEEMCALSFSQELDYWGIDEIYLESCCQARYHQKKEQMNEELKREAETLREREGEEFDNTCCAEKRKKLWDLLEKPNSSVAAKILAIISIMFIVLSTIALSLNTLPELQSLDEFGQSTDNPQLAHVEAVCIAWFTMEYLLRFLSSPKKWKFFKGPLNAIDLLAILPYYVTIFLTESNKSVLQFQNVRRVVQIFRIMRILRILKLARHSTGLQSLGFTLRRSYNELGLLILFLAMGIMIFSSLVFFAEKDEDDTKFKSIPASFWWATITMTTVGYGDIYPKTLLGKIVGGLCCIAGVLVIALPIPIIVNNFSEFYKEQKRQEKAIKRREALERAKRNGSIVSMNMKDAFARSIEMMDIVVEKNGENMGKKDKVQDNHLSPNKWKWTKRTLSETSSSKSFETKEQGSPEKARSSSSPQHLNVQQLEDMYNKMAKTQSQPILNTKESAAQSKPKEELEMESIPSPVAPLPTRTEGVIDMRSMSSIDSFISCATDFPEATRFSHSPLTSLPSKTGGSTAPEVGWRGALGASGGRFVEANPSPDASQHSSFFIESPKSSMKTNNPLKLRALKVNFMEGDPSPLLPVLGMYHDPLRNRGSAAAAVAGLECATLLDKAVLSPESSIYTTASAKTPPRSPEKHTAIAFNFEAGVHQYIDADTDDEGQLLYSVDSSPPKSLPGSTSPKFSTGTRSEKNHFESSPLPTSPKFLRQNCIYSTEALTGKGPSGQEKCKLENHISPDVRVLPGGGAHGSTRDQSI
Test: KV2.1 currents, whole-cell patch-clamp
Assay type: cell-based
Settings: Eo1a 10 μM, 5 min, HEK293, human KV2.1, n = 3
Procedure: Human Embryonic Kidney (HEK) 293 cells stably expressing human NaV1.1 to NaV1.7/β1 (SB Drug Discovery, Glasgow, United Kingdom), Chinese Hamster Ovary (CHO) cells stably expressing human NaV1.8/β3 in a tetracycline-inducible system (ChanTest, Cleveland, OH, United States), and HEK293 cells stably expressing rat transient receptor potential vanilloid 1 (TRPV1) were cultured as previously described ([Yin et al., 2020]). Human KV2.1 and NaV1.7 mutants were transiently transfected into HEK293 cells stably expressing β1/β2 using Lipofectamine 2000 (Thermo Fisher Scientific, Scoresby, VIC, Australia) and used for patch-clamp experiments 48 h after transfection. Cells were grown in an incubator at 37°C with 5% CO2 and passaged every 3–4 d (at 70–80% confluency) using TrypLE Express (Thermo Fisher Scientific).
Automated whole-cell patch-clamp recordings were performed with a QPatch-16 automated electrophysiology platform (Sophion Bioscience, Ballerup, Denmark) using single-hole (QPlate 16 with a standard resistance of 2 ± 0.4 MΩ) or multi-hole (QPlate 16X with a standard resistance 0.2 ± 0.04 MΩ, NaV1.8 only) as previously described ([McMahon et al., 2020]).
The extracellular solution (ECS) consisted of (in mM) 145 NaCl (replaced with 70 choline chloride for NaV1.4, NaV1.5 and NaV1.7), 4 KCl, 2 CaCl2, 1 MgCl2, 10 HEPES, and 10 glucose, pH to 7.4 with NaOH (adjusted to 305 mOsm/L with sucrose). For NaV recordings the intracellular solution (ICS) consisted of (in mM) 140 CsF, 1 EGTA, 5 CsOH, 10 HEPES, and 10 NaCl, pH to 7.3 with CsOH (adjusted to 320 mOsm/L with sucrose). For KV2.1 recordings the ICS consisted of (in mM) 50 KCl, 60 KF, 10 EGTA, 10 HEPES, 10 NaCl pH to 7.3 with KOH (adjusted to 320 mOsm/L with sucrose). TTX (1 μM) was added to the ECS for NaV1.8 recordings to inhibit background endogenous TTX sensitive current in CHO cells.
KV2.1 currents were acquired using a holding potential of −80 mV and a 300 ms pulse to +50 mV every 20 s (0.05 Hz). Eo1a was incubated for 5 min and compared to buffer control.

CC[C@H](C)[C@@H]1NC(=O)[C@H](CCCNC(=N)N)NC(=O)[C@@H]2CSSC[C@@H]3NC(=O)CNC(=O)CNC(=O)[C@H](CC(C)C)NC(=O)[C@H](Cc4ccccc4)NC(=O)[C@H](Cc4c[nH]c5ccccc45)NC(=O)[C@H](CCCNC(=N)N)NC(=O)[C@@H](NC(=O)[C@@H](N)CC(=O)O)CSSC[C@H](NC(=O)[C@H](CSSC[C@@H](C(=O)N[C@@H](C)C(=O)N[C@@H](Cc4c[nH]c5ccccc45)C(=O)N[C@@H](CC(=O)O)C(=O)NCC(=O)N[C@H](C(=O)N[C@@H](Cc4ccccc4)C(N)=O)[C@@H](C)O)NC(=O)[C@H](Cc4ccc(O)cc4)NC(=O)[C@H](CCCCN)NC(=O)[C@H]([C@@H](C)CC)NC(=O)[C@H](Cc4ccc(O)cc4)NC(=O)CNC(=O)[C@H](CC(=O)O)NC1=O)NC(=O)[C@H](CC(=O)O)NC(=O)[C@H](CO)NC(=O)[C@H](CC(=O)O)NC(=O)[C@H](CCCCN)NC(=O)[C@H](CO)NC3=O)C(=O)N[C@@H](CCCCN)C(=O)N[C@@H](Cc1c[nH]cn1)C(=O)N[C@@H](CC(C)C)C(=O)N[C@@H](C)C(=O)N2 [Eo1a] (H-DCRWFLGGCSKDSDCCKHLACRIDGYIKYCAWDGTF-NH2; disulfide 2-16, 9-21, 15-30 (inferred); N-terminus assumed)
τactivation of KV2.1 (300 ms pulse to +50 mV, buffer 5.1 ± 0.4 ms): 13.6 ± 2.7 ms
late current size of KV2.1, I250 ms (holding −80 mV, 300 ms pulse to +50 mV, buffer 6.25 ± 0.9 nA): 6.34 ± 0.9 nA
KV2.1 late current, inhibitory activity: no inhibitory activity
